Results: patent US9663463B2, “3-azabicyclo[3.1.0]hexane derivative and use thereof for medical purpose” (priority 2013, dated 2017)
Counter-ions that a name gives are not always drawn.

Key:
[1] = tested on: pruritus mice model to which morphine had been intracisternally administered; assay: Anti-pruritic effect in pruritus mice model to which morphine had been intracisternally administered; type: in vivo; conditions: Mus musculus; oral administration, male ICR mice, inhibition of morphine-induced scratching behavior; read-out: ED50
Description: As experimental animals, male ICR (Cr1j: CD1 (ICR): Charles River Japan) mice were used at 5 to 6-week old. The mice were placed in an acrylic cage (colorless and transparent, W 13.5 cm×D 9.5 cm×H 40 cm) for observing scratching behavior for 30 minutes or more to thereby allow the mice to get used to the observation environment, and the test substance solutions were forcedly orally administered to the test substance-administered groups. In addition, an administration vehicle was forcedly orally administered to the normal control group and the pathological control group. A necessary amount of the test substance was weighed and formed into a micropowder in an agate mortar, an administration vehicle, a 0.5 w/v % methyl cellulose 400 solution (Wako Pure Chemical Industries Ltd.) was added little by little, and preparation was performed by suspending or dissolving so as to give an intended concentration (from 0.025 to 3 mg/ml). The test doses were preset to suitable doses in the range in which the maximum dose is 30 mg/10 ml/kg.
Based on 30 minutes after the forced oral administration of the test substance as a criterion, the time for the intracisternal administration of morphine was suitably set up to 120 minutes after at the maximum, with consideration for the times of maximum plasma concentration of the respective test substances, in the case when the in vivo pharmacokinetics of the test substance had been confirmed in advance. Furthermore, saline was intracisternally administered to the normal control group, and the above-mentioned morphine solution was intracisternally administered to the pathogenic control group, so as to be 5 μL/site at the same time as that of the test substance group after the forced oral administration of the administration vehicle in either case.
The behavior of each mouse within 60 minutes from the intracisternal administration of the morphine solution or saline was recorded by a digital video camera that was installed immediately above the acrylic cage, the images were stored in a digital video recorder, and the number of frequency of the scratching behavior was measured. The number of frequency of the scratching behavior was measured with deeming a behavior in which the mouse raised its hindlimb, scratched the facial surface and the peripheral sites thereof, and got the hindlimb off from the body within 30 minutes from after the intracisternal administration of the morphine or saline as one time.
The anti-pruritic effect of each test substance was obtained as follows. As an inhibition ratio against the number of frequency of the scratching behavior on the pathological control group, the inhibition ratio (%) of the respective individuals and the average value thereof were calculated from the following formula, and an ED50 value was calculated based on the obtained inhibition ratio. Inhibition ratio of each individual (%)={1−(A−Vehicle)/(Morphine−Vehicle)}×100 Morphine: the average of the scratching number of the pathological control group Vehicle: the average of the scratching number of the normal control group A: the scratching number of each individual in the test substance-administered group

[2] = in vitro; type: in vitro ADME, mice; conditions: Crl:CD-1 (ICR), mouse, pH 7.4; murine serum, equilibrium dialysis, 37° C., 5 to 6 hours; read-out: Protein binding rate (converted)
Description: The protein binding rate was determined by equilibrium dialysis method using the RED Device (8K MWCO, Rapid Equilibrium Dialysis Device, Thermo Scientific). The test substances that had been dissolved in DMSO were added to the serum that was collected from Crl: CD-1 (ICR) mice fasted overnight, so that the final concentration of DMSO became 1% (v/v). The serum to which the test substance had been added was added to the inner side of the dialysis membrane of the RED Device, and PBS (phosphate buffer saline, pH 7.4) containing 0.01% (v/v) Tween 80 was added to the outside in accordance with the method for using the RED Device and incubated at 37° C. for 5 to 6 hours with ellipsoidal shaking at 100 rpm so that the concentration of the unbound test substance in the serum and the concentration of the test substance in the PBS reached equilibrium. After the incubation was completed, the respective solutions were collected and stored under freezing at −60° C. or less as measurement samples. The proteins were removed from the measurement sample by adding acetonitrile in an amount of 5-fold or more of the amount of the internal standard substance and the serum sample, and the supernatants were measured by LC/MS/MS (liquid chromatograph—triple quadrupole mass spectrometer). The serum samples were measured after suitably diluting with distilled water as necessary.
A: the concentration of the test substance in the PBS sample
B: the concentration of the test substance in the serum sample

## CC[C@]1(c2cccc(NS(=O)(=O)C3CC3)c2)[C@@H]2CN(CCCC3CCC(F)(F)CC3)C[C@@H]21 [Example 4-(b), N-(3-{(1R,5S,6r)-3-[3-(4,4-difluorocyclohexyl)propyl]-6-ethyl-3-azabicyclo[3.1.0]hexan-6-yl}phenyl)cyclopropanesulfonamide hydrochloride]
[1]
  ED50: 0.5 mg/kg
[2]
  fraction unbound: 0.019

## CC[C@]1(c2cc(F)cc(NS(=O)(=O)C3CC3)c2)[C@@H]2CN(CC3(O)Cc4ccccc4C3)C[C@@H]21 [Example 10-(b), N-(3-{(1R,5S,6r)-6-ethyl-3-[(2-hydroxy-2,3-dihydro-1H-inden-2-yl)methyl]-3-azabicyclo[3.1.0]hexan-6-yl}-5-fluorophenyl)cyclopropanesulfonamide hydrochloride]
[1]
  ED50: 1.8 mg/kg
[2]
  fraction unbound: 0.102

## CC[C@]1(c2cccc(NS(=O)(=O)C3CC3)c2)[C@@H]2CN(CCCN3CCCC(F)(F)C3)C[C@@H]21 [Example 16-(b), N-(3-{(1R,5S,6r)-3-[3-(3,3-difluoropiperidin-1-yl)propyl]-6-ethyl-3-azabicyclo[3.1.0]hexan-6-yl}phenyl)cyclopropanesulfonamide hydrochloride]
[1]
  ED50: 5.7 mg/kg
[2]
  fraction unbound: 0.246

## CC[C@]1(c2cc(NS(=O)(=O)C3CC3)ccc2F)[C@@H]2CN(CCCC3CCC(F)(F)CC3)C[C@@H]21 [Example 5-(b), N-(3-{(1R,5S,6r)-3-[3-(4,4-difluorocyclohexyl)propyl]-6-ethyl-3-azabicyclo[3.1.0]hexan-6-yl}-4-fluorophenyl)cyclopropanesulfonamide hydrochloride]
[1]
  ED50: 1.7 mg/kg
[2]
  fraction unbound: 0.005

## CC[C@]1(c2cccc(NS(=O)(=O)C3CC3)c2)[C@@H]2CN(CCCN3CCC(F)(F)C3)C[C@@H]21 [Example 8-(b), N-(3-{(1R,5S,6r)-3-[3-(3,3-difluoropyrrolidin-1-yl)propyl]-6-ethyl-3-azabicyclo[3.1.0]hexan-6-yl}phenyl)cyclopropanesulfonamide hydrochloride]
[1]
  ED50: 2 mg/kg
[2]
  fraction unbound: 0.316

## CC[C@]1(c2cc(NS(=O)(=O)C3CC3)ccc2F)[C@@H]2CN(CC3(O)Cc4ccccc4C3)C[C@@H]21 [Example 2-(b), N-(3-{(1R,5S,6r)-6-ethyl-3-[(2-hydroxy-2,3-dihydro-1H-inden-2-yl)methyl]-3-azabicyclo[3.1.0]hexan-6-yl}-4-fluorophenyl)cyclopropanesulfonamide hydrochloride]
[1]
  ED50: 0.83 mg/kg
[2]
  fraction unbound: 0.006

## CC[C@]1(c2cc(NS(=O)(=O)C3CC3)ccc2F)[C@@H]2CN(CCCN3CCC(F)(F)CC3)C[C@@H]21 [Example 15-(b), N-(3-{(1R,5S,6r)-3-[3-(4,4-difluoropiperidin-1-yl)propyl]-6-ethyl-3-azabicyclo[3.1.0]hexan-6-yl}-4-fluorophenyl)cyclopropanesulfonamide hydrochloride]
[1]
  ED50: 3.1 mg/kg
[2]
  fraction unbound: 0.1
